# Test results reported in paper PMC11623267, “Inhibitors of malaria parasite cyclic nucleotide phosphodiesterases block asexual blood-stage development and mosquito transmission” (Science Advances, 2024).
# pEC50: −log10 of the molar value. Read-outs that look alike come from different tables or passages of the source.
# What was measured:
# [1] = test system: P. falciparum (clone 3D7); experiment: Parasite reduction ratio (PRR) assay; assay type: cell-based, Plasmodium falciparum; details: for Lag phase / Log PRR / PCT99.9% (hours taken to kill 99.9% of the parasites): 10× EC50, 3D7; for Slope: 10× EC50, 3D7 killing profile; for Killing profile: 10× EC50, faster than pyrimethamine, slower than chloroquine
# Procedure: The in vitro killing profile of compounds was determined by monitoring the ability of parasites to recover following treatment with a compound of interest using a previously reported approach ([50]), which allowed calculation of the PRR ([51]). […] To quantify the number of viable parasites following treatment, four independent sets of threefold serial dilutions were performed on each sample, which were assayed for the presence or absence of parasites after 28 days using the LDH assay, and the number of viable parasites was determined by the number of wells showing growth. PRR and PCT99.9% were calculated as previously reported ([50]).
# [2] = test system: P. falciparum clinical isolates from Porto Velho, Brazil; experiment: Ex vivo schizont maturation assay, Brazilian clinical isolates; assay type: cell-based, Plasmodium falciparum; details: Plasmodium falciparum
# Procedure: Only monoinfected patients with P. falciparum with parasitemia between 2000 and 80,000 parasites/μl and with at least 70% of ring-stage parasites were recruited. Patients who had used an antimalarial in the previous month and/or presented with symptoms of severe malaria were excluded from the study. The study cohort comprised 24 patients living in this highly endemic area. A peripheral venous blood sample (5 ml) was collected from each individual by venipuncture in heparin-containing tubes and immediately used in the ex vivo drug susceptibility assay using preprepared plates containing diluted antimalarial compounds. […] Last, 20 μl of each dilution was transferred into the ex vivo assay plate and diluted 10-fold into the final assay medium containing parasites. For the infected blood preparation, 5 ml of whole blood was centrifuged at 800g for 10 min, and the plasma and buffy coat were removed. […] Control assays on a 3D7 laboratory isolate were performed with medium supplemented with human serum (20%). The iRBC (180 μl per well) were distributed in the predosed drug plate. […] Control wells containing drug-free iRBCs were cultured with complete medium. The parasite-drug incubation was terminated when 40% of the ring stages reached the schizont stage (at least three distinct nuclei per parasite) in the drug-free control wells. Thick blood films were then made from each well, dried, stained with 5% Giemsa solution for 30 min, and examined microscopically. The number of schizonts per 200 asexual-stage parasites was determined for each drug concentration and then normalized by comparing with the schizont number in the drug-free control wells [considered as 100% ([64])]. The half-maximal drug inhibitory response (EC50) was estimated by curve fitting using software from the OriginLab Corporation, Northampton, MA, USA and comparing with parasite growth in the drug-free controls.
# P. falciparum Dd2-B2 = experiment: 72-hour flow cytometry EC50 assay, Dd2-B2 parental line; assay type: cell-based, Plasmodium falciparum; details: read-out: EC50 Dd2-B2 parental line
# Procedure: (§1) Stocks of SAL-0010003 (5-benzyl), SAL-0010355 (5-aryl), and SAL-0010419 (2-alkyl) were made at 10 and 1 mM in DMSO. Aliquots in use were stored at −20°C, and long-term storage was at −80°C. All in vitro studies were done such that the final DMSO concentration was <0.5%. P. falciparum ABS parasites were cultured at 3% hematocrit in human O+ RBCs in RPMI 1640 medium, supplemented with 25 mM Hepes, 50 mg L-hypoxanthine, 2 mM L-glutamine, 0.225% sodium bicarbonate, 0.5% (w/v) AlbuMAX II (Invitrogen) and gentamycin (10 μg/ml), in modular incubator chambers (Billups-Rothenberg) at 5% O2, 5% CO2, and 90% N2 at 37°C. Dd2-B2 (obtained from T. Wellems, National Institute of Allergy and Infectious Diseases, National Institutes of Health) is a genetically homogenous line that was cloned from Dd2 by limiting dilution. To define the EC50 and EC90 values of ABS parasites, Dd2-B2 ring-stage cultures at 0.2% parasitemia and 1% hematocrit were exposed for 72 hours to a range of 10 drug concentrations that were twofold serially diluted in duplicates along with drug-free controls. Parasite survival was assessed by flow cytometry on an iQue flow cytometer (Sartorius) using SYBR Green and MitoTracker Deep Red FM (Life Technologies) as nuclear stain and vital dyes, respectively. After determination of the EC50 and EC90 values for the three compounds with the P. falciparum Dd2-B2 clone, one single-step selection was set up using 2 × 10^5 parasites in each well of a 96-well plate at a starting concentration of 3× EC90. Parasites were cleared from the culture rapidly, and cultures were screened three times weekly by flow cytometry and counted as positive for recrudescence when the overall parasitemia reached 0.3% and the parasites were visible on a blood smear. DNA was extracted from recrudescent lines using a QIAGEN QIAamp Blood Mini Kit, and libraries were prepared with the Illumina DNA Prep kit for whole-genome sequencing on the Illumina MiSeq using a V3 2 × 300–base pair flow cell.
# [3] = test system: P. falciparum Dd2-B2 lines selected under drug pressure; experiment: 72-hour flow cytometry EC50 assay, lines selected under drug pressure; assay type: cell-based, Plasmodium falciparum; details: for Mean fold change in EC50: selected lines vs Dd2-B2 parental line, ±SD; for EC50 shift, line selected with the same NPD compound, Well 1 / EC50 shift, line selected with the same NPD compound, Well 2 / EC50 shift, line selected with the same NPD compound, Well 3 / EC50 shift, line selected with the same NPD compound, Well 4: vs Dd2-B2
# Procedure: Three examples of an additional compound series developed independently [NPD-2958, NPD-3518 ([31]), and NPD-3738; fig.
# as §1
# [4] = test system: P. falciparum stage IV/V gametocytes; experiment: LDH-based gametocyte viability assay; assay type: cell-based, Plasmodium falciparum; details: stage IV to V gametocytes
# Procedure: The pLDH assay was performed on late (>95% stage IV/V) gametocytes. Compound dilutions were placed in triplicate in 96-well plates in a final volume of 100 μl per well. DHA and MMV048 were used as positive drug controls. The gametocyte cultures (100 μl per well) were added to the 96-well plates to achieve a final gametocytemia and hematocrit of 2 and 1%, respectively, in a total incubation volume of 200 μl. Plates were incubated at 37°C for 72 hours, followed by the replacement of spent medium with drug-free culture medium (75% medium change) ([54], [55]). Plates were then incubated for a further 72 hours before assessing viability by measuring pLDH activity. Gametocyte viability was determined spectrophotometrically by measuring the activity of pLDH, according to a modified version of a published protocol ([56]). Briefly, 100 μl of Malstat reagent [0.21% (v/v) Triton X-100, 222 mM L-(+)-lactic acid, 54.5 mM tris, 0.166 mM APAD (Sigma-Aldrich, A5251), adjusted to pH 9 with 1 M NaOH] was transferred into a clean 96-well plate. A fixed volume of 20 μl of parasite suspension per well was added to the Malstat plate, followed by the addition of 25 μl of PES/NBT (0.239 mM phenazine ethosulfate and 1.96 mM nitro blue tetrazolium chloride). Absorbance was measured with a Multiskan Ascent 354 multiplate scanner (Thermo LabSystems, Finland) at 620 nm.
# [5] = test system: P. falciparum stage V gametocytes (male gamete formation); experiment: Exflagellation (male gamete formation) inhibition assay; assay type: cell-based, Plasmodium falciparum; details: 2 μM, 48 hours
# Procedure: The exflagellation inhibition assay was performed by capturing movement of exflagellation centers over time by video microscopy [adapted from a reported protocol ([52])]. For this carry-over format, mature stage V gametocytes were treated with 2 μM of each compound for 48 hours before induction of exflagellation in the presence of compound. To evaluate compound dose response, gametocytes were treated similarly at a set of concentrations representing a fourfold serial dilution. Mature gametocyte cultures (>95% stage V; 500 μl) were centrifuged at 3500 rpm for 30 s, and the pellet was resuspended in 30 μl of ookinete medium [RPMI 1640 medium containing L-glutamine (Sigma-Aldrich, R6504), gentamycin (0.024 mg/ml; HyClone, SV30080.01), 202 μM hypoxanthine (Sigma-Aldrich, H9636), 25 mM Hepes (Sigma-Aldrich, H4034), 0.2% glucose (Sigma-Aldrich, G6152), and 0.5% (w/v) AlbuMAX II (Invitrogen, Paisley, UK), supplemented with 100 μM XA and 20% human serum]. The activated culture (10 μl) was introduced into a Neubauer chamber and placed on the microscope platform to settle homogenously. Time was noted as time zero (T0), and the chamber was incubated at room temperature. Movement was recorded by video microscopy using a Carl Zeiss NT 6V/10W Stab microscope, fitted with a MicroCapture camera at 10× magnification, and then quantified by a semiautomated method, a modification of the method described previously ([53]). A series of 15 videos of 8 to 10 s each were captured at random locations between 15 and 22.5 min after incubation. Each video was analyzed using Icy bioimage analysis software to quantify the number of exflagellating centers. Compound IC50 values were determined with nonlinear curve fitting (GraphPad Prism 6), normalized to maximum and minimum inhibition.
# [6] = test system: P. falciparum stage V gametocytes (female gamete formation); experiment: Female gamete formation inhibition assay; assay type: cell-based, Plasmodium falciparum; details: 2 μM, 48 hours
# Procedure: Mature gametocytes (>95% stage V) were treated with compounds (2 μM) for 48 hours before stimulating female gamete formation. To evaluate compound dose response, gametocytes were treated similarly at set concentrations representing a fourfold serial dilution. Female gamete activation was induced by both a temperature drop and the addition of 100 μM XA. Monoclonal anti-Pfs25 antibody (BEI Resources, catalog number MRA-28; 1:1000 dilution) conjugated to fluorescein isothiocyanate was used to detect female gametes. Image acquisition was performed using a Zeiss Axio Lab.A1 epifluorescence microscope with a 100/1.4 numerical aperture oil immersion objective and a Zeiss Axiocam 202 mono digital camera. Using a 100× objective, 30 images were taken per sample and analyzed manually. The number, size, roundness, and intensity of fluorescence of activated female gametocytes were evaluated. Compound IC50 values were determined with nonlinear curve fitting (GraphPad Prism 6), normalized to maximum and minimum inhibition.
# HepG2 cells = experiment: HepG2 cytotoxicity; assay type: cell-based
# Excerpt: Table 1. Key activity data for the three main chemical subseries against ABS parasites, parasite fractions, and HepG2 cells. ND, not determined; ×/÷ is the geometric mean with geometric SD. | column: HepG2 EC50 (nM) (selectivity index)
# [7] = read-out: EC50, line selected with the same NPD compound, Well 1
# [8] = read-out: EC50, line selected with the same NPD compound, Well 2
# [9] = read-out: EC50, line selected with the same NPD compound, Well 3
# [10] = read-out: EC50, line selected with the same NPD compound, Well 4
compound,measurement,setting,value
"C[C@H]1[C@H](OC(=O)CCC(=O)O)O[C@@H]2O[C@@]3(C)CC[C@H]4[C@H](C)CC[C@@H]1[C@@]24OO3 [Artesunate, reference compound]",Lag phase,[1],0 h
same,Log PRR,[1],>8
same,PCT99.9% (hours taken to kill 99.9% of the parasites),[1],<24 h
same,pEC50,"[2]; read-out: EC50 range, clinical isolates",8.05 to 10.00
same,pEC50,"[2]; read-out: Median EC50, clinical isolates",9.22
CC(C)c1n[nH]c2c(=O)[nH]c(C3CCCCC3)nc12 [NPD-3518],pEC50,P. falciparum Dd2-B2,6.69
same,pEC50,[3]; [7],5.58
same,pEC50,[3]; [8],5.64
same,pEC50,[3]; [9],5.60
same,pEC50,[3]; [10],5.60
same,Mean fold change in EC50,[3],12.2 ± 0.7 fold
same,"EC50 shift, line selected with the same NPD compound, Well 1",[3],12.9 fold
same,"EC50 shift, line selected with the same NPD compound, Well 2",[3],11.2 fold
same,"EC50 shift, line selected with the same NPD compound, Well 3",[3],12.4 fold
same,"EC50 shift, line selected with the same NPD compound, Well 4",[3],12.4 fold
CCCCOc1ncc(Br)cc1-c1nc2c(C(C)C)n[nH]c2c(=O)[nH]1 [SAL-0010203],% inhibition gametocyte viability at 15 μM,[4],0%
same,% inhibition of exflagellation at 2 μM,[5],76.7 ± 13.6%
same,% inhibition of female gamete formation at 2 μM,[6],44.8 ± 1.7%
CC(C)c1n[nH]c2c(=O)[nH]c(C3CCOc4ccc(F)cc43)nc12 (centres unmarked) [SAL-0010007],% inhibition gametocyte viability at 15 μM,[4],100 ± 0%
same,% inhibition of exflagellation at 2 μM,[5],100 ± 0%
same,% inhibition of female gamete formation at 2 μM,[6],50.6 ± 1.9%
"O=C1C(O)=C([C@H]2CC[C@H](c3ccc(Cl)cc3)CC2)C(=O)c2ccccc21 [Atovaquone, reference compound]",Lag phase,[1],48 h
same,Log PRR,[1],2.26
same,PCT99.9% (hours taken to kill 99.9% of the parasites),[1],73.0 h
same,Slope,[1],−0.0470 ± 0.0042
CC(C)COc1ccc(S(=O)(=O)N(C)C)cc1-c1nc2c(C(C)(C)C)n[nH]c2c(=O)[nH]1 [SAL-0010284],% inhibition gametocyte viability at 15 μM,[4],100 ± 0%
same,% inhibition of exflagellation at 2 μM,[5],60.5 ± 18.0%
same,% inhibition of female gamete formation at 2 μM,[6],58.6 ± 2.1%
CNC(=O)c1cnc(OCC(C)C)c(-c2nc3c(C(C)C)n[nH]c3c(=O)[nH]2)c1 [SAL-0010301],pEC50,HepG2 cells,< 4.60
same,Lag phase,[1],0 h
same,Log PRR,[1],2.55
same,PCT99.9% (hours taken to kill 99.9% of the parasites),[1],55.1 h
same,Slope,[1],−0.0532 ± 0.0042
same,Killing profile,[1],fast/moderate killing profile
CC(C)COc1ccc(S(=O)(=O)N(C)C)cc1-c1nc2c(C3CCC3)n[nH]c2c(=O)[nH]1 [SAL-0010283],% inhibition gametocyte viability at 15 μM,[4],100 ± 0%
same,% inhibition of exflagellation at 2 μM,[5],72.1 ± 26.0%
same,% inhibition of female gamete formation at 2 μM,[6],44.8 ± 2.5%
CC(C)COc1ccc(S(=O)(=O)N(C)C)cc1-c1nc2c(C(C)C)n[nH]c2c(=O)[nH]1 [SAL-0010243],% inhibition gametocyte viability at 15 μM,[4],100 ± 0%
same,% inhibition of exflagellation at 2 μM,[5],95.4 ± 12.3%
same,% inhibition of female gamete formation at 2 μM,[6],80.5 ± 0.9%
CCc1c2nc(-c3cc(C(=O)NC)cnc3OCC(C)C)[nH]c(=O)c2nn1CCOC [SAL-0010031],pEC50,HepG2 cells,< 4.60
same,Lag phase,[1],0 h
same,Log PRR,[1],2.78
same,PCT99.9% (hours taken to kill 99.9% of the parasites),[1],51.2 h
same,Slope,[1],−0.0579 ± 0.0058
same,Killing profile,[1],fast/moderate killing profile
CC(C)c1n[nH]c2c(=O)[nH]c(Cc3ccccc3Cl)nc12 [NPD-2958],pEC50,P. falciparum Dd2-B2,6.50
same,pEC50,[3]; [7],5.59
same,pEC50,[3]; [8],5.47
same,pEC50,[3]; [9],5.61
same,pEC50,[3]; [10],5.61
same,Mean fold change in EC50,[3],8.5 ± 1.4 fold
same,"EC50 shift, line selected with the same NPD compound, Well 1",[3],8.1 fold
same,"EC50 shift, line selected with the same NPD compound, Well 2",[3],10.5 fold
same,"EC50 shift, line selected with the same NPD compound, Well 3",[3],7.7 fold
same,"EC50 shift, line selected with the same NPD compound, Well 4",[3],7.6 fold
